Measurements from patent US4886812A, “Tetrahydro-benzthiazoles, the preparation thereof and their use as intermediate products or as pharmaceuticals” (Dr. Karl Thomae GmbH, priority 1984, dated 1989).
Structures can show the parent of a compound that is named as a salt.

Assays:
[1] = tested on: presynaptic dopamine receptors; assay: Inhibition of the exploratory activity of mice (infra-red light barrier cages); assay type: in vivo
Procedure: The activity was measured in observation cages fitted with an infra-red light barrier. […] Groups of 5 animals are given the test substance, unless otherwise specified, in a dosage of 10 mg/kg by subcutaneous injection. […] In parallel or alternately with groups treated with test substance, control groups treated with common salt are investigated (0.9% solution; 0.1 ml/10 g of body weight by subcutaneous route).

dopamine turnover = assay: Inhibition of dopamine turnover (AMPT-induced dopamine reduction in brain); assay type: in vivo, mice
Procedure: The inhibition of dopamine turnover was measured in mice. In animals treated with α-methylparatyrosine (AMPT) (250 mg/kg by intraperitoneal route) 15 minutes into the experiment, the dopamine concentration throughout the brain decreases as the test progresses. By administering substances which act on autoreceptors, the dopamine reduction (compared with control animals treated with common salt solution) can be prevented. Test substances are administered at time O of the experiment in a dosage of 5 mg/kg s.c., unless otherwise stated. Four hours and 15 minutes into the experiment the animals are killed and the brains are subjected to dopamine determination using high pressure liquid chromatography with electrochemical detection. This determines the percentage inhibition, caused by the test substance, of the dopamine reduction induced by AMPT.

dopamine synthesis = assay: Inhibition of dopamine synthesis (γ-butyrolactone-stimulated DOPA accumulation in corpus striatum); assay type: in vivo
Procedure: For this purpose, 5 animals are given the test substance in a dosage of 10 mg/kg s.c., unless otherwise stated. […] In order to inhibit the decarboxylation of DOPA, 200 mg/kg of 3-hydroxybenzyl-hydrazinhydrochloride are administered by intraperitoneal route after a further 5 minutes. Forty minutes after administration of the substance the animals are killed and the corpus striatum is prepared. The DOPA content is measured by HPLC with electrochemical detection (standard: dihydroxybenzylamine).
The percentage inhibition, produced by the test substance, of the DOPA accumulation stimulated by γ- butyrolactone compared with the controlled animals treated with 0.9% common salt solution is determined.

[2] = tested on: Rhesus monkeys (MPTP model for Parkinson's disease)
Source text: The discovery of the neurotoxin 1-methyl-4-phenyl-1,2,3,6-tetrahydropyridine (MPTP) (Langston et al., Science 219, 979 (1983)) provided an animal model for Parkinson's disease.
The irreversible neurological syndrome triggered by MPTP in man and in monkeys largely resembles the idiopathic Parkinson's disease in its clinical, pathological, biochemical and pharmacological characteristics (Markey et al., Nature 311, 464 (1984)). The reason for this convincing similarity is the fact that MPTP selectively destroys the small group of dopaminergic nerve cells in the substantia nigra of the brain which are also destroyed by degenerative processes in naturally occurring Parkinson's disease.

[3] = 10 mg/kg s.c., measurement of exploration 75 minutes after administration
[4] = 5 mg/kg s.c., AMPT 250 mg/kg i.p., brain dopamine at 4 hours 15 minutes

C=CCNc1nc2c(s1)CC(N(C)C)CC2.Cl.Cl (stereo not shown) [Substance D, 2-allylamino-6-dimethylamino-4,5,6,7-tetrahydro-benzthiazol-dihydrochloride]
Inhibition of activity in percent compared with controls treated with common salt [1, 3]: 76%
% inhibition of AMPT effect (dopamine turnover; [4]): 52%

CN(C)C1CCc2nc(N)sc2C1.Cl.Cl (stereo not shown) [Substance A, 2-amino-6-dimethylamino-4,5,6,7-tetrahydrobenzthiazol-dihydrochloride]
Dosage giving 50 percent inhibition of activity (read off from the dosage/activity curve) ([1]; 50 percent inhibition, curve in the range 1-10 mg/kg s.c.): 2.7 mg/kg s.c.
Inhibition of activity in percent compared with controls treated with common salt ([1]; at 2.7 mg/kg s.c., read off from the dosage/activity curve (1-10 mg/kg s.c.)): 50%
ED50 (dopamine turnover; Mus musculus, sc, 50 % inhibition, curve in the range 0.5-3 mg/kg s.c., read-out: Dosage giving 50 % inhibition of AMPT effect (read off from the dosage/activity curve)): 0.95 mg/kg
% inhibition of AMPT effect (dopamine turnover; at 0.95 mg/kg s.c., read off from the dosage/activity curve (0.5-3 mg/kg s.c.)): 50%
Inhibition of DOPA accumulation in percent compared with controls treated with common salt (dopamine synthesis; at 0.55 mg/kg s.c., read off from the dosage/activity curve (0.1-1.0 mg/kg s.c.)): 50%
ED50 (dopamine synthesis; sc, 50 percent inhibition, curve in the range 0.1-1.0 mg/kg s.c., read-out: Dosage giving 50 percent inhibition of DOPA accumulation (read off from the dosage/activity curve)): 0.55 mg/kg

Cl.Cl.Nc1nc2c(s1)CC(N1CCCC1)CC2 (stereo not shown) [Substance B, 2-amino-6-pyrrolidino-4,5,6,7-tetrahydrobenzthiazol-dihydrochloride]
Inhibition of activity in percent compared with controls treated with common salt ([1]; 10 mg/kg s.c., measured one hour after administration): 94%
% inhibition of AMPT effect (dopamine turnover; [4]): 67%

CCCNC1CCc2nc(N)sc2C1.Cl.Cl (stereo not shown) [Substance C, 2-amino-6-n-propylamino-4,5,6,7-tetrahydrobenzthiazol-dihydrochloride]
Inhibition of activity in percent compared with controls treated with common salt [1, 3]: 20%
Inhibition of DOPA accumulation in percent compared with controls treated with common salt (dopamine synthesis; 10 mg/kg s.c., γ-butyrolactone 750 mg/kg i.p., 40 minutes after administration): 60%
Residual symptoms ([2]; 10-100 μg/kg intramuscular): an occasional transient and slight resting tremor and a reduction in rough strength
Sedation ([2]; 10-100 μg/kg intramuscular): no sedation
Circulation in the skin ([2]; 10-100 μg/kg intramuscular, compared with before administration): appeared to be greater than before
Effect of a fresh administration ([2]; after reversion to Parkinson symptoms): again leads to an improvement or substantial removal of the clinically pathological manifestations

C=CCN(Cc1ccc(Cl)cc1)C1CCc2nc(N)sc2C1 (stereo not shown) [Substance E, 6-[N-ally-N-(4-chloro-benzyl)-amino]-2-amino-4,5,6,7-tetrahydro-benzthiazol-dihydrochloride]
Inhibition of activity in percent compared with controls treated with common salt [1, 3]: 56%
% inhibition of AMPT effect (dopamine turnover; [4]): 32%

C=CCN(CC=C)C1CCc2nc(N)sc2C1.Cl.Cl (stereo not shown) [Substance F, 2-amino-6-diallylamino-4,5,6,7-tetrahydrobenzthiazol-dihydrochloride]
Inhibition of activity in percent compared with controls treated with common salt [1, 3]: 60%
